According to patent publication US9573911B2, “Diphosphate mimetics and uses thereof” (President and Fellows of Harvard College, priority 2011, dated 2017):

Assays:
Assay in all cases: Kinase profiling, Invitrogen Z'-LYTE
Assay type in all cases: biochemical
Settings in all cases: Table 2
AURKA (Aurora A) = biological target: T1, AURKA (Aurora A) (Homo sapiens, UniProt O14965)
T1 construct: purchased Invitrogen
T1 sequence (O14965 1-403): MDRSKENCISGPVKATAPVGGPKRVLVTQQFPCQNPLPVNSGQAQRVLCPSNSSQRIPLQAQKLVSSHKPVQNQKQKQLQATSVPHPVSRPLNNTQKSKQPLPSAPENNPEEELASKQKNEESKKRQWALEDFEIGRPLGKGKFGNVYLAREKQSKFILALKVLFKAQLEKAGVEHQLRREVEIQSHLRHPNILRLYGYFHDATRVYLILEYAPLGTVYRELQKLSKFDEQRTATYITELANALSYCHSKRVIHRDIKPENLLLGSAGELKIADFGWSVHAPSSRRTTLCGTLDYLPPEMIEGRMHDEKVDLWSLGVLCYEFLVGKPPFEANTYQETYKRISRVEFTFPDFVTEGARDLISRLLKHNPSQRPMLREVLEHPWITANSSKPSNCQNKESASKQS
Protocol: (§1) Kinase profiling was conducted using Invitrogen Z'-LYTE screening protocol and assay conditions found at www.invitrogen.com. Compound (2) inhibited PLK1 completely at 5 μM.

FER = biological target: T2, FER (Homo sapiens, UniProt P16591)
T2 construct: purchased Invitrogen
Protocol: as §1

FGR = biological target: T3, FGR (Homo sapiens, UniProt P09769)
T3 construct: purchased Invitrogen
Protocol: as §1

GRK4 = biological target: T4, GRK4 (Homo sapiens, UniProt P32298)
T4 construct: purchased Invitrogen
Protocol: as §1

HIPK2 = biological target: T5, HIPK2 (Homo sapiens, UniProt Q9H2X6)
T5 construct: purchased Invitrogen
Protocol: as §1

IKBKE (IKK epsilon) = biological target: T6, IKBKE (IKK epsilon) (Homo sapiens, UniProt Q14164)
T6 construct: purchased Invitrogen
T6 sequence (Q14164 1-716): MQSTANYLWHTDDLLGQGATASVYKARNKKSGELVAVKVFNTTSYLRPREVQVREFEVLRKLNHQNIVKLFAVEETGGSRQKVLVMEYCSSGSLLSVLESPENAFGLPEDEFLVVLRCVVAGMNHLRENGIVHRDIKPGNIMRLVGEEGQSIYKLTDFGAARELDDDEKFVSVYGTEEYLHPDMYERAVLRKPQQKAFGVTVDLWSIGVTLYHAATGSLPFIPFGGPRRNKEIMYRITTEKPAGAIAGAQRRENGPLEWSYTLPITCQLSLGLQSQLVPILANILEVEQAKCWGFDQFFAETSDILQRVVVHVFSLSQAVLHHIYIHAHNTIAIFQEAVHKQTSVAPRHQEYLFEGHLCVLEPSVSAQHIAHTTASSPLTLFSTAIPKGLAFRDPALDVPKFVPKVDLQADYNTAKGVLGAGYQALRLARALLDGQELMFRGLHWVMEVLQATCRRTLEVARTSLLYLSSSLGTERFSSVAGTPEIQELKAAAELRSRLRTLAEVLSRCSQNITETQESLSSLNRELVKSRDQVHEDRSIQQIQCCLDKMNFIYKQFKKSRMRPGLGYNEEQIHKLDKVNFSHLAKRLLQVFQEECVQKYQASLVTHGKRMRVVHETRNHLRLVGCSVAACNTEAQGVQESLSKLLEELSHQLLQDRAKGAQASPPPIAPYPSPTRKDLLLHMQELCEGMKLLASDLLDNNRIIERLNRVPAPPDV
Protocol: as §1

MAPK12 (p38 gamma) = biological target: T7, MAPK12 (p38 gamma) (Homo sapiens, UniProt P53778)
T7 construct: purchased Invitrogen
T7 sequence (P53778 1-367): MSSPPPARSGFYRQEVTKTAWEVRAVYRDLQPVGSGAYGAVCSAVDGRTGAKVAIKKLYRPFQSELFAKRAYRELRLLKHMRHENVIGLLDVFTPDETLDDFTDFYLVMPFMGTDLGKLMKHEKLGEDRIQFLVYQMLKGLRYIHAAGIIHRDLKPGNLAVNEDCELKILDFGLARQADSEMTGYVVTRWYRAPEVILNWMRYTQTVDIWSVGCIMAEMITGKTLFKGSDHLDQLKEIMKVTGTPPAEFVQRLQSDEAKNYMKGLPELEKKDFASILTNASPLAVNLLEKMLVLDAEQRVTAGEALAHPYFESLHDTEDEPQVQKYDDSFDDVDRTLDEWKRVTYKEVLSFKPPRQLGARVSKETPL
Protocol: as §1

MET M1250T = biological target: T8, MET M1250T (Homo sapiens, UniProt P08581, M1250T)
T8 construct: purchased Invitrogen
Protocol: as §1

MST1R (RON) = biological target: T9, MST1R (RON) (Homo sapiens, UniProt Q04912)
T9 construct: purchased Invitrogen
Protocol: as §1

NEK6 = biological target: T10, NEK6 (Homo sapiens, UniProt Q9HC98)
T10 construct: purchased Invitrogen
Protocol: as §1

RET = biological target: T11, RET (Homo sapiens, UniProt P07949)
T11 construct: purchased Invitrogen
Protocol: as §1

SRPK2 = biological target: T12, SRPK2 (Homo sapiens, UniProt P78362)
T12 construct: purchased Invitrogen
Protocol: as §1

T11 sequence (P07949 29-1114): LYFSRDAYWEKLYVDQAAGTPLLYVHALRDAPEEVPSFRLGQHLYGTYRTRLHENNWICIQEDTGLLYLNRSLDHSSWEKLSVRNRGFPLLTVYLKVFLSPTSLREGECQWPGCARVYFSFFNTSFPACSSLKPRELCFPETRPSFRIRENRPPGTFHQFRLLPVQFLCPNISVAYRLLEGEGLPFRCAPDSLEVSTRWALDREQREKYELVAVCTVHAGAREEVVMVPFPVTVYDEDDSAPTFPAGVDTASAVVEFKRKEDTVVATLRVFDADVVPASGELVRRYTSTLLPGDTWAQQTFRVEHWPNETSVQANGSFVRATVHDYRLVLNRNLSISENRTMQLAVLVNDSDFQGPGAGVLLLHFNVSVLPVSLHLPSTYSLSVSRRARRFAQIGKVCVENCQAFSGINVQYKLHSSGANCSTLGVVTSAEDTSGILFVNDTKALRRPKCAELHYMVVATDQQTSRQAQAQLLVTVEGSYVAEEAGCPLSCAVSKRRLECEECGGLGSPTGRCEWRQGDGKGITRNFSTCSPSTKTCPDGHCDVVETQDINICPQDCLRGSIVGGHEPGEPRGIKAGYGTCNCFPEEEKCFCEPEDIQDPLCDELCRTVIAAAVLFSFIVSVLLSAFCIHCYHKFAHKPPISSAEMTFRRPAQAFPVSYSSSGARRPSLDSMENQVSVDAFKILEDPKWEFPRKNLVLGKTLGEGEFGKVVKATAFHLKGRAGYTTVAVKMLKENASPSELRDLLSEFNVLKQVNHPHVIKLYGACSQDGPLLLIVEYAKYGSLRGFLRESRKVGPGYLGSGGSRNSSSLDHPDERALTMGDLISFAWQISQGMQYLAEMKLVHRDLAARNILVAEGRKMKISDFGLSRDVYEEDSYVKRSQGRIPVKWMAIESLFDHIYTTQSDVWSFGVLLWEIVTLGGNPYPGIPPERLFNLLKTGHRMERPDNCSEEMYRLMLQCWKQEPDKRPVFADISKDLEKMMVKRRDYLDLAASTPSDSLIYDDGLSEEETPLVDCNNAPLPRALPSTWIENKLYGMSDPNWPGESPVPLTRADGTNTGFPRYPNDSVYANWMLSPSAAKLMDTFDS
T5 sequence (Q9H2X6 whole entry): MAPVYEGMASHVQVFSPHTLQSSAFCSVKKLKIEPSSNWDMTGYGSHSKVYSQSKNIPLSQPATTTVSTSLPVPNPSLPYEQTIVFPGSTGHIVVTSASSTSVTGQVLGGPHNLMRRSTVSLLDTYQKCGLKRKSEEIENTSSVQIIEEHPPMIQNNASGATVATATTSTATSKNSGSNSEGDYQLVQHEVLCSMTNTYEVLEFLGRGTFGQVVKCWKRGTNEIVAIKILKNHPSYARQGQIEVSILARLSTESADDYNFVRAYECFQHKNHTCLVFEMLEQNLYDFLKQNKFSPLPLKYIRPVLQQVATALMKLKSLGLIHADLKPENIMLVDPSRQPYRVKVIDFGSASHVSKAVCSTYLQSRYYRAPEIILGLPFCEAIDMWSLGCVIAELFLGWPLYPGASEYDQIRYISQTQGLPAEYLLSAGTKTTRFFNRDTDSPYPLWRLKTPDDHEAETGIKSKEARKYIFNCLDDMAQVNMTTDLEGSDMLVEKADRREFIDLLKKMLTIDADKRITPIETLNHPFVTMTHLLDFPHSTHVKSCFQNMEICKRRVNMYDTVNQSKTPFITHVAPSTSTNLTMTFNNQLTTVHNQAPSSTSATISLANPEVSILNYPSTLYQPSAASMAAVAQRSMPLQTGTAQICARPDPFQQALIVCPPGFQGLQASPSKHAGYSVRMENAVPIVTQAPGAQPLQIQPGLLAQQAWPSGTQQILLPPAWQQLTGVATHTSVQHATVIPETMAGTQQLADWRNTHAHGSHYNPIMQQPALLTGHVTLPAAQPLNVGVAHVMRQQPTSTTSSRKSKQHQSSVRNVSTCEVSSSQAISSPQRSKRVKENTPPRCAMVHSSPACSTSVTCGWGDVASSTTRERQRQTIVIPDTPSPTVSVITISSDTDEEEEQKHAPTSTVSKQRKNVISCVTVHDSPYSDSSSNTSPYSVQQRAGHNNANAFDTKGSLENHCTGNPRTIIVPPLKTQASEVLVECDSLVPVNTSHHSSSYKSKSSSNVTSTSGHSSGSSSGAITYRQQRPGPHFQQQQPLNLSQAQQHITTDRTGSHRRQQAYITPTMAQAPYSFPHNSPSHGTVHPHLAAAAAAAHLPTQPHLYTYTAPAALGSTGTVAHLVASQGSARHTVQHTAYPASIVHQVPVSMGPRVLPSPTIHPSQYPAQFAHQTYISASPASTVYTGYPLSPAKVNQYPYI
T4 sequence (P32298 whole entry): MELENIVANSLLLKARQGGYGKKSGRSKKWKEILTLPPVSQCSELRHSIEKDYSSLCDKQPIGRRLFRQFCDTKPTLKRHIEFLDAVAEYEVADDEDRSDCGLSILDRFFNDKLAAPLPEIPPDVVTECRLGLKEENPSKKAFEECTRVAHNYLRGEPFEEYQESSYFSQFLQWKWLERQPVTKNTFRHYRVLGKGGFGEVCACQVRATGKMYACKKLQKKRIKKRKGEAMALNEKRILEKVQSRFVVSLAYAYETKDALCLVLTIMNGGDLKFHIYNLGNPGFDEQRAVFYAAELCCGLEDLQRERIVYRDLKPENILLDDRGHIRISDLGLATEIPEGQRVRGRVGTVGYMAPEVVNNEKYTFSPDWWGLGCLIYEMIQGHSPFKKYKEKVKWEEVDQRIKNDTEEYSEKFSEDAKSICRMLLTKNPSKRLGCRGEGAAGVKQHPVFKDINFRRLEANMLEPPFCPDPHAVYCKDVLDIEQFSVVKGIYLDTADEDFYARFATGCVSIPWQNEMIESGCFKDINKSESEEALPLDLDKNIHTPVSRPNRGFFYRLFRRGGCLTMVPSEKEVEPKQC
T3 sequence (P09769 whole entry): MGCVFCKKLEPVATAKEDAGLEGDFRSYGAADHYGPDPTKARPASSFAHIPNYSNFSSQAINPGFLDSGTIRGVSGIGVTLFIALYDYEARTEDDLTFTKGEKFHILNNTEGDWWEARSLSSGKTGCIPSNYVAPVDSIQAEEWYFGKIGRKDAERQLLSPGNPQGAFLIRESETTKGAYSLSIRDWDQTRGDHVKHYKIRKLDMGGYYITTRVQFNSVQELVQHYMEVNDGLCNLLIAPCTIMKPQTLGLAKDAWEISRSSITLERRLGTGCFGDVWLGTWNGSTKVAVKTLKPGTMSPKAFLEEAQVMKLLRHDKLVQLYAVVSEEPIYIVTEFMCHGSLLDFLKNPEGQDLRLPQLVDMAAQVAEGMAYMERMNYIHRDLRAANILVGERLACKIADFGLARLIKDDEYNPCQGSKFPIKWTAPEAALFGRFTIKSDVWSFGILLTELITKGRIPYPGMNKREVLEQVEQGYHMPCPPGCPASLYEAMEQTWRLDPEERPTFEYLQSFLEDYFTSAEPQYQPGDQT
T9 sequence (Q04912 25-1400): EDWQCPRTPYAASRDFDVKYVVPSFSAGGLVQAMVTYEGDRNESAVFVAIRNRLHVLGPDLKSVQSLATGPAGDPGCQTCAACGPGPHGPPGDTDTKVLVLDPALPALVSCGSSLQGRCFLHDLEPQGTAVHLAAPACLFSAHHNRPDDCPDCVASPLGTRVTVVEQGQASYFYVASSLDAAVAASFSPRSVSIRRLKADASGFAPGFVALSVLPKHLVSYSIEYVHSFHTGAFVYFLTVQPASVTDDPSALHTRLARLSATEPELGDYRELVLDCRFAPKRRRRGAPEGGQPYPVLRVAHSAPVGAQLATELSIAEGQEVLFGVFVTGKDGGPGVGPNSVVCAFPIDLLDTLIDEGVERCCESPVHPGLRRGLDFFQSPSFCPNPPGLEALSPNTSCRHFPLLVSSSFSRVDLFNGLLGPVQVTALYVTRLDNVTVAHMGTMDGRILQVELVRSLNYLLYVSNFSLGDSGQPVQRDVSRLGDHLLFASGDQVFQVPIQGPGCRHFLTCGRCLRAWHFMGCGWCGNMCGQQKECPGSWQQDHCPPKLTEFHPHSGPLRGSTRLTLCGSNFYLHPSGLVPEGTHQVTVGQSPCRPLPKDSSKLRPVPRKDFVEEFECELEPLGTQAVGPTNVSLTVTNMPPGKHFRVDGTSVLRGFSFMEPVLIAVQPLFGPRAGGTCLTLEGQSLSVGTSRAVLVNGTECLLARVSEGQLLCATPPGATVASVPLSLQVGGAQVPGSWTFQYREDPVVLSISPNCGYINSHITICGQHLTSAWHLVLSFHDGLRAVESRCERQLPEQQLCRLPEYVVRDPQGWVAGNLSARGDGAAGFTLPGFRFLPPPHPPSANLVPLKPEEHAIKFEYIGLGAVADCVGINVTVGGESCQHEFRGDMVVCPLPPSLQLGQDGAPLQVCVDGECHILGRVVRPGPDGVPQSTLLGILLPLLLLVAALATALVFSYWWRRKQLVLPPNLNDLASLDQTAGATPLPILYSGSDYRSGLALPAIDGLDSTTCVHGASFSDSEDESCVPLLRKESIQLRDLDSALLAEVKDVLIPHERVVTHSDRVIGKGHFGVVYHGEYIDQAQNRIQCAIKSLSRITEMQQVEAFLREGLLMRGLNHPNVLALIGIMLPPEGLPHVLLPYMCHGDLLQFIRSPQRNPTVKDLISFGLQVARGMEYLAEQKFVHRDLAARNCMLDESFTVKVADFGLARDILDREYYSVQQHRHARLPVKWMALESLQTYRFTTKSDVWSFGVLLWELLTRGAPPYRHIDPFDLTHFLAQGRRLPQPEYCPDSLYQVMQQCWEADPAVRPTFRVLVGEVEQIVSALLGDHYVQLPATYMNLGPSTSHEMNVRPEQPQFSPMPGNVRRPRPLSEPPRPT
T10 sequence (Q9HC98 whole entry): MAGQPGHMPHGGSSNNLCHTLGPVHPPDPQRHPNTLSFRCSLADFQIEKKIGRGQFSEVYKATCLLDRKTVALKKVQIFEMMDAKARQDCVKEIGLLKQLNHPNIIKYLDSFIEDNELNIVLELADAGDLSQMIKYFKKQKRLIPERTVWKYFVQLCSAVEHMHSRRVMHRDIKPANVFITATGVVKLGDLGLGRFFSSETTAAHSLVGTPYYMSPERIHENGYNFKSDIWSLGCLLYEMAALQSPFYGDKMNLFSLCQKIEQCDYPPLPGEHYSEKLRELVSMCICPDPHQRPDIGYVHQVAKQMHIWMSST

COc1ccc(OC(=O)n2c(=O)oc3cc(C(C)=O)ccc32)cc1 [Compound 2]
% Inhibition Point 1 (AURKA (Aurora A)): −146% | % Inhibition Point 2 (AURKA (Aurora A)): −146% | % Inhibition mean (AURKA (Aurora A)): −146% | % Inhibition Point 1 (FER): −261% | % Inhibition Point 2 (FER): −240% | % Inhibition mean (FER): −251% | % Inhibition Point 1 (FGR): 21% | % Inhibition Point 2 (FGR): 21% | % Inhibition mean (FGR): 21% | % Inhibition Point 1 (GRK4): 77% | % Inhibition Point 2 (GRK4): 76% | % Inhibition mean (GRK4): 76% | % Inhibition Point 1 (HIPK2): −96% | % Inhibition Point 2 (HIPK2): −90% | % Inhibition mean (HIPK2): −93% | % Inhibition Point 1 (IKBKE (IKK epsilon)): 3% | % Inhibition Point 2 (IKBKE (IKK epsilon)): 4% | % Inhibition mean (IKBKE (IKK epsilon)): 3% | % Inhibition Point 1 (MAPK12 (p38 gamma)): −203% | % Inhibition Point 2 (MAPK12 (p38 gamma)): −203% | % Inhibition mean (MAPK12 (p38 gamma)): −203% | % Inhibition Point 1 (MET M1250T): −113% | % Inhibition Point 2 (MET M1250T): −143% | % Inhibition mean (MET M1250T): −128% | % Inhibition Point 1 (MST1R (RON)): −258% | % Inhibition Point 2 (MST1R (RON)): −245% | % Inhibition mean (MST1R (RON)): −252% | % Inhibition Point 1 (NEK6): −490% | % Inhibition Point 2 (NEK6): −457% | % Inhibition mean (NEK6): −474% | % Inhibition Point 1 (RET): −91% | % Inhibition Point 2 (RET): −70% | % Inhibition mean (RET): −80% | % Inhibition Point 1 (SRPK2): −155% | % Inhibition Point 2 (SRPK2): −160% | % Inhibition mean (SRPK2): −158%
